Source: patent US11046699B2, “Pyrazolo-pyrimidin-amino-cycloalkyl compounds and their therapeutic uses” (RAPT THERAPEUTICS, INC., priority 2018, dated 2021)
pIC50: −log10 of the molar value. Where two headings read alike, the source gives them in different places.

Target: GCN2 (Homo sapiens, UniProt Q9P2K8)
Test: GCN2 enzymatic endpoint assay: phosphorylation of GFP-eIF2α measured by TR-FRET (Lanthascreen)
Type: biochemical
Description: The Enzymatic assay was run as an endpoint assay to quantify the activity of the serine/threonine GCN2 kinase by way of measuring phosphorylation of its natural substrate, eiF2α.
The enzymatic reaction was initiated by incubating with 2 μM ATP and 80 nM of GFP labeled eiF2a substrate at room temperature and then stopped after 90 minutes with EDTA. The amount of phosphorylated eIF2α is determined by TR-FRET (Lanthascreen). A terbium labeled antibody associates with the phosphorylated substrate resulting in an increased TR-FRET value. Activity was calculated as the ratio of the acceptor (fluorescein) signal at 520 nm wavelength to the donor (terbium) signal 495 nm. The amount of antibody that is bound to the tracer is directly proportional to the amount of phosphorylated substrate present, and in this manner, kinase activity can be detected and measured by an increase in the TR-FRET value.
Compound addition by D300
5 μL enzyme solution in assay buffer
5 μL substrate/ATP mixture in assay buffer
5 μL stop/detection mix in antibody dilution buffer

[1] = tested as described in Example 77, compound and/or hydrochloride, dihydrochloride or trifluoroacetic acid salt, read-out: IC 50 Activity
[2] = GCN2 biochemical IC50, 4 nM GCN2, 2 μM ATP, 80 nM GFP-eIF2α, 90 min RT, read-out: GCN2 activity

GCN2, sequence (Q9P2K8 whole entry): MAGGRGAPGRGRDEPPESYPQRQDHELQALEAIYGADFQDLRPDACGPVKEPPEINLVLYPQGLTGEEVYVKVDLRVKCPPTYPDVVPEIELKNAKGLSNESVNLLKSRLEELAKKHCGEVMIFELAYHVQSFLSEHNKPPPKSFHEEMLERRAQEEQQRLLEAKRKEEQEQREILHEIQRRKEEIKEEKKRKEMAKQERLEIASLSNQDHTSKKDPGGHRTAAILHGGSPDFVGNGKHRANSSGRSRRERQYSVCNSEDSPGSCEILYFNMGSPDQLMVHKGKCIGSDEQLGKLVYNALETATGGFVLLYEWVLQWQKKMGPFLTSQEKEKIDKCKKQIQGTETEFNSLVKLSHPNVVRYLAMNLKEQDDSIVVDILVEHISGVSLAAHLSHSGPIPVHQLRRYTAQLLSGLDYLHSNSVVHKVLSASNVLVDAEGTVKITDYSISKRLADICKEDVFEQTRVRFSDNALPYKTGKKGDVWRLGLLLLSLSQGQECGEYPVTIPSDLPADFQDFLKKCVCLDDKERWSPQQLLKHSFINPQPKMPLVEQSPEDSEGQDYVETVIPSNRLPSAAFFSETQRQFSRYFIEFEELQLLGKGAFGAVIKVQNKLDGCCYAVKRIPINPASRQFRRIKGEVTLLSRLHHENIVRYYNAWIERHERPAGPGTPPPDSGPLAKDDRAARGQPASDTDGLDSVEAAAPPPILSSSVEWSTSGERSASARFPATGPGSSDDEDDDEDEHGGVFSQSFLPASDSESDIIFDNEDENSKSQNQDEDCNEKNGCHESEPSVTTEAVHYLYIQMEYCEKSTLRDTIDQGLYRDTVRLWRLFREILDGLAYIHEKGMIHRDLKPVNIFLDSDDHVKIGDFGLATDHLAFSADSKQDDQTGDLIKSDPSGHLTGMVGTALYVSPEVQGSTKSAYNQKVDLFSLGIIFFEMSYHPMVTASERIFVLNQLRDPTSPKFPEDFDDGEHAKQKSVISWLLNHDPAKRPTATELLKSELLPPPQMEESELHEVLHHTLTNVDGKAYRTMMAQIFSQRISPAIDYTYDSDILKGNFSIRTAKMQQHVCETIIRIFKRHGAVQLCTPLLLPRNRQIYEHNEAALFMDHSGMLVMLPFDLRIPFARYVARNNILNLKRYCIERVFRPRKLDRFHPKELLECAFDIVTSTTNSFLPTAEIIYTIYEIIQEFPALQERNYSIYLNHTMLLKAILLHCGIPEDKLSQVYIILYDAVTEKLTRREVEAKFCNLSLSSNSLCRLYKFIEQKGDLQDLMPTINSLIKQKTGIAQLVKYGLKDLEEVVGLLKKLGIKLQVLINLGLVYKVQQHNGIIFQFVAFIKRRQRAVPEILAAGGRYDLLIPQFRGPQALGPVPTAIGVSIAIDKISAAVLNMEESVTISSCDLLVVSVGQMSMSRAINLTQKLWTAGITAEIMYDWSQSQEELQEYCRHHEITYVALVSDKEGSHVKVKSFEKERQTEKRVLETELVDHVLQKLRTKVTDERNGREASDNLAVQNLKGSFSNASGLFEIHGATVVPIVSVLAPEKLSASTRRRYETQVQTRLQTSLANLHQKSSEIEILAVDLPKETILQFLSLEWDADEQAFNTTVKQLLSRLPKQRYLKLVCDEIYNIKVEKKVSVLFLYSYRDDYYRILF

Structure (SMILES) | pIC50 [1] | pIC50 [2]
O=S(=O)(NC1CCC1)[C@@H]1CC[C@@H](Nc2ncc3c(Br)nn(-c4ccc5ncccc5c4)c3n2)C1 [(1R,3R)-3-((3-bromo-1-(quinolin-6-yl)-1H-pyrazolo[3,4-d]pyrimidin-6-yl)amino)-N-cyclobutylcyclopentane-1-sulfonamide] | 6.00 to 6.30 | 
O=C(NC[C@H]1COCCN1)[C@@H]1CC[C@@H](Nc2ncc3c(Br)nn(-c4cc(F)c5ncccc5c4)c3n2)C1 | 6.70 to 7.60 | 
O=C1CN(C(=O)[C@@H]2CC[C@@H](Nc3ncc4c(Br)nn(-c5cc(F)c6ncccc6c5)c4n3)C2)CC(=O)N1 [4-((1R,3R)-3-((3-bromo-1-(8-fluoroquinolin-6-yl)-1H-pyrazolo[3,4-d]pyrimidin-6-yl)amino)cyclopentane-1-carbonyl)piperazine-2,6-dione] | > 7.60 | 
CNC(=O)[C@]1(C)CC[C@@H](Nc2ncc3c(Br)nn(-c4cc(CC#N)c5nccnc5c4)c3n2)C1 [(1R,3R)-3-[[3-bromo-1-[8-(cyanomethyl)quinoxalin-6-yl]pyrazolo[3,4-d]pyrimidin-6-yl]amino]-N,1-dimethyl-cyclopentane-carboxamide] | 6.70 to 7.60 | 
CNC(=O)[C@]1(C)CC[C@@H](Nc2ncc3c(Br)nn(-c4cc(OCC#N)c5c(c4)OCC(=O)N5C)c3n2)C1 [(1R,3R)-3-[[3-bromo-1-[5-(cyano-methoxy)-4-methyl-3-oxo-1,4-benzoxazin-7-yl]pyrazolo[3,4-d]pyrimidin-6-yl]amino]-N,1-dimethyl-cyclopentane-carboxamide] | > 7.60 | 
CNC(=O)[C@@H]1CC[C@@H](Nc2ncc3c(Br)nn(-c4ccc(-c5nnc(C)o5)cc4)c3n2)C1 [(1R,3R)-3-[[3-bromo-1-[4-(5-methyl-1,3,4-oxadiazol-2-yl)phenyl]pyrazolo[3,4-d]pyrimidin-6-yl]amino]-N-methyl-cyclopentanecarboxamide] | 6.70 to 7.60 | 
CNC(=O)[C@]1(C)CCC(Nc2ncc3c(Br)nn(-c4ccc5nn(CCN)cc5c4)c3n2)C1 (stereo partly drawn) [(1R)-3-[[1-[2-(2-aminoethyl)indazol-5-yl]-3-bromo-pyrazolo[3,4-d]pyrimidin-6-yl]amino]-N,1-dimethyl-cyclopentane-carboxamide] | 6.70 to 7.60 | 
O=C([C@@H]1CC[C@@H](Nc2ncc3c(Br)nn(-c4ccc5ncccc5c4)c3n2)C1)N1CCC2(CCCCO2)C1 (stereo partly drawn) [((1R,3R)-3-((3-bromo-1-(quinolin-6-yl)-1H-pyrazolo[3,4-d]pyrimidin-6-yl)amino)cyclopentyl)(6-oxa-2-azaspiro[4.5]decan-2-yl)methanone] | 6.30 to 6.70 | 
CNC(=O)[C@]1(C)CC[C@@H](Nc2ncc3c(Br)nn(-c4ccc5ncn(C)c(=O)c5c4)c3n2)C1 [Example 72, (1R,3R)-3-((3-bromo-1-(3-methyl-4-oxo-3,4-dihydroquinazolin-6-yl)-1H-pyrazolo[3,4-d]pyrimidin-6-yl)amino)-N,1-dimethylcyclopentane-1-carboxamide] |  | 6.70 to 7.60
CNC(=O)[C@]1(C)CC[C@@H](Nc2ncc3c(Br)nn(-c4ccc5c(c4)[C@H](NS(C)(=O)=O)CC5)c3n2)C1 [(1R,3R)-3-[[3-bromo-1-[(3R)-3-(methanesulfonamido)indan-5-yl]pyrazolo [3,4-d]pyrimidin-6-yl]amino]-N,1-dimethyl-cyclopentanecarboxamide] | 6.70 to 7.60 | 
C[C@H](N)c1cc(Cl)cc(-n2nc(Br)c3cnc(N[C@@H]4CC[C@@](C)(O)C4)nc32)c1 [Example 75, (1R,3R)-3-((1-(3-((S)-1-aminoethyl)-5-chlorophenyl)-3-bromo-1H-pyrazolo[3,4-d]pyrimidin-6-yl)amino)-1-methylcyclopentan-1-ol] |  | 6.70 to 7.60
CNC(=O)[C@]1(C)CC[C@@H](Nc2ncc3c(Br)nn(-c4cc(C#N)cc(CS(C)(=O)=O)c4)c3n2)C1 | 6.70 to 7.60 | 
Cc1nnc(-c2ccc(-n3nc(Br)c4cnc(N[C@@H]5CC[C@@]6(CCNC6=O)C5)nc43)cc2)s1 | 6.70 to 7.60 | 
CNC(=O)[C@]1(C)CC[C@@H](Nc2ncc3c(Br)nn(-c4ccc5ncccc5c4)c3n2)C1 (single isomer, unassigned) [Example 18] |  | 6.70 to 7.60
O=C1OCC[C@@]12CC[C@@H](Nc1ncc3c(Br)nn(-c4cc(F)c5ncccc5c4)c3n1)C2 [(5S,8R)-8-[[3-bromo-1-(8-fluoro-6-quinolyl)pyrazolo[3,4-d]pyrimidin-6-yl]amino]-2-oxaspiro[4.4]nonan-1-one] | 6.70 to 7.60 | 
CNC(=O)C1(C)CC[C@@H](Nc2ncc3c(Br)nn(-c4ccc5nc(OC)ccc5c4)c3n2)C1 (stereo partly drawn) [(3R)-3-[[3-bromo-1-(2-methoxy-6-quinolyl)pyrazolo[3,4-d]pyrimidin-6-yl]amino]-N,1-dimethyl-cyclopentanecarboxamide] | 6.70 to 7.60 | 

Structure (SMILES) | pIC50 [1] | pIC50 [2]
CC[C@@H](N)c1cc(Cl)cc(-n2nc(Br)c3cnc(N[C@@H]4CC[C@@](C)(C(=O)NC)C4)nc32)c1 | > 7.60 | 
CNC(=O)[C@]1(C)CC[C@@H](Nc2ncc3c(Br)nn(-c4ccc(-c5ncco5)c(CNS(C)(=O)=O)c4)c3n2)C1 [(1R,3R)-3-[[3-bromo-1-[3-(methane-sulfonamidomethyl)-4-oxazol-2-yl-phenyl]pyrazolo[3,4-d]pyrimidin-6-yl]amino]-N,1-dimethyl-cyclopentanecarboxamide] | 6.70 to 7.60 | 
COCCNC(=O)[C@@H]1CC[C@@H](Nc2ncc3c(Br)nn(-c4ccc5cnccc5c4)c3n2)C1 [Example 6, (1R,3R)-3-((3-bromo-1-(isoquinolin-6-yl)-1H-pyrazolo[3,4-d]pyrimidin-6-yl)amino)-N-(2-methoxyethyl)cyclopentane-1-carboxamide] |  | 6.70 to 7.60
Brc1nn(-c2ccc3ncccc3c2)c2nc(N[C@@H]3CC[C@@H](c4ncc[nH]4)C3)ncc12 [Example 25, N-((1R,3R)-3-(1H-imidazol-2-yl)cyclopentyl)-3-bromo-1-(quinolin-6-yl)-1H-pyrazolo[3,4-d]pyrimidin-6-amine] |  | 6.70 to 7.60
O=C([C@@H]1CC[C@@H](Nc2ncc3c(Br)nn(-c4ccc5ncccc5c4)c3n2)C1)N1CCS(=O)(=O)CC1 [((1R,3R)-3-((3-bromo-1-(quinolin-6-yl)-1H-pyrazolo[3,4-d]pyrimidin-6-yl)amino)cyclo-pentyl)(1,1-dioxidothiomorpholino)methanone] | 6.70 to 7.60 | 
CNC(=O)C1(C)CC[C@@H](Nc2ncc3c(Br)nn(-c4ccc(-c5cnn(CCOC)c5)cc4)c3n2)C1 (stereo partly drawn) [(3R)-3-[[3-bromo-1-[4-[1-(2-methoxyethyl)pyrazol-4-yl]phenyl]pyrazolo[3,4-d]pyrimidin-6-yl]amino]-N,1-dimethyl-cyclopentanecarboxamide] | 6.70 to 7.60 | 
Cc1ccc2cc(-n3nc(Br)c4cnc(N[C@@H]5CC[C@@H](P(C)(C)=O)C5)nc43)cc(F)c2n1 [3-bromo-N-[(1R,3R)-3-dimethylphosphoryl-cyclopentyl]-1-(8-fluoro-2-methyl-6-quinolyl) pyrazolo[3,4-d]pyrimidin-6-amine] | 6.70 to 7.60 | 
COCCNC(=O)[C@@H]1CC[C@@H](Nc2ncc3c(Br)nn(-c4ccc5nc(C)ccc5c4)c3n2)C1 [(1R,3R)-3-((3-bromo-1-(2-methylquinolin-6-yl)-1H-pyrazolo[3,4-d]pyrimidin-6-yl)amino)-N-(2-methoxyethyl)cyclopentane-1-carboxamide] | 6.30 to 6.70 | 
COCCNC(=O)[C@]1(C)CC[C@@H](Nc2ncc3c(Br)nn(-c4ccc5ncccc5c4)c3n2)C1 [(1R,3R)-3-((3-bromo-1-(quinolin-6-yl)-1H-pyrazolo[3,4-d]pyrimidin-6-yl)amino)-N-(2-methoxyethyl)-1-methylcyclopentane-1-carboxamide] | 6.70 to 7.60 | 
CNC(=O)[C@]1(C)CC[C@@H](Nc2ncc3c(Br)nn(-c4ccc5c(c4)CCC(=O)N5CC#N)c3n2)C1 [(1R,3R)-3-[[3-bromo-1-[1-(cyano-methyl)-2-oxo-3,4-dihydroquinolin-6-yl]pyrazolo[3,4-d]pyrimidin-6-yl]amino]-N,1-dimethyl-cyclopentane-carboxamide] | 6.70 to 7.60 | 
CNC(=O)[C@]1(CC(F)F)CC[C@@H](Nc2ncc3c(Br)nn(-c4ccc5ncncc5c4)c3n2)C1 [(1R,3R)-3-[(3-bromo-1-quinazolin-6-yl-pyrazolo[3,4-d]pyrimidin-6-yl)amino]-1-(2,2-difluoroethyl)-N-methyl-cyclopentanecarboxamide] | 6.70 to 7.60 | 
O=C(CO)N1CCN(C(=O)[C@@H]2CC[C@@H](Nc3ncc4c(Br)nn(-c5cc(F)c6ncccc6c5)c4n3)C2)CC1 [1-(4-((1R,3R)-3-((3-bromo-1-(8-fluoroquinolin-6-yl)-1H-pyrazolo[3,4-d]pyrimidin-6-yl)amino)cyclopentane-1-carbonyl)piperazin-1-yl)-2-hydroxyethan-1-one] | 6.70 to 7.60 | 
CNC(=O)[C@]1(C)CC[C@@H](Nc2ncc3c(Br)nn(-c4ccc(-c5cncnc5)cc4)c3n2)C1 [(1R,3R)-3-[[3-bromo-1-(4-pyrimidin-5-ylphenyl)pyrazolo[3,4-d]pyrimidin-6-yl]amino]-N,1-dimethyl-cyclopentane-carboxamide] | 6.70 to 7.60 | 
CNC(=O)[C@]1(C)CC[C@@H](Nc2ncc3c(Br)nn(-c4ccc(-c5cccnc5)c(CN)c4)c3n2)C1 [(1R,3R)-3-[[1-[3-(aminomethyl)-4-(3-pyridyl)phenyl]-3-bromo-pyrazolo[3,4-d]pyrimidin-6-yl]amino]-N,1-dimethyl-cyclopentane-carboxamide] | 6.70 to 7.60 | 
CNC(=O)C1(C)CC[C@@H](Nc2ncc3c(Br)nn(-c4ccc(Cn5ccnc5)cc4)c3n2)C1 (stereo partly drawn) [(3R)-3-[[3-bromo-1-[4-(imidazol-1-ylmethyl)phenyl]pyrazolo[3,4-d]pyrimidin-6-yl]amino]-N,1-dimethyl-cyclopentanecarboxamide] | 6.70 to 7.60 | 
